Laboratory results as given in paper PMC6222422, “Synthesis and Biological Evaluation of Novel Indole-Derived Thioureas” (Molecules : A Journal of Synthetic Chemistry and Natural …, 2018).
Values after ≈ are worked out from the molar mass of the structure shown. Like-named read-outs stand apart in the source and are kept apart here.

Legend:
[1] = tested on: S. aureus NCTC 4163; experiment: MIC, twofold serial agar dilution; type: cell-based; settings: Staphylococcus aureus, NCTC4163, 18 h, 35 °C, read-out: minimal inhibitory concentrations (MIC)
[2] = tested on: S. aureus ATCC 25923; experiment: MIC, twofold serial agar dilution; type: cell-based; settings: Staphylococcus aureus, ATCC25923, 18 h, 35 °C, read-out: minimal inhibitory concentrations (MIC)
[3] = tested on: S. aureus ATCC 6538; experiment: MIC, twofold serial agar dilution; type: cell-based; settings: Staphylococcus aureus, ATCC6538, 18 h, 35 °C, read-out: minimal inhibitory concentrations (MIC)
[4] = tested on: S. aureus ATCC 29213; experiment: MIC, twofold serial agar dilution; type: cell-based; settings: Staphylococcus aureus, ATCC29213, 18 h, 35 °C, read-out: minimal inhibitory concentrations (MIC)
[5] = tested on: S. epidermidis ATCC 12228; experiment: MIC, twofold serial agar dilution; type: cell-based; settings: Staphylococcus epidermidis, ATCC12228, 18 h, 35 °C, read-out: minimal inhibitory concentrations (MIC)
[6] = tested on: B. subtilis ATCC 6633; experiment: MIC, twofold serial agar dilution; type: cell-based; settings: Bacillus subtilis, ATCC6633, 18 h, 35 °C, read-out: minimal inhibitory concentrations (MIC)
[7] = tested on: B. cereus ATCC 11778; experiment: MIC, twofold serial agar dilution; type: cell-based; settings: Bacillus cereus, ATCC11778, 18 h, 35 °C, read-out: minimal inhibitory concentrations (MIC)
[8] = tested on: M. luteus ATCC 9341; experiment: MIC, twofold serial agar dilution; type: cell-based; settings: Micrococcus luteus, ATCC9341, 18 h, 35 °C, read-out: minimal inhibitory concentrations (MIC)
[9] = tested on: M. luteus ATCC 10240; experiment: MIC, twofold serial agar dilution; type: cell-based; settings: Micrococcus luteus, ATCC10240, 18 h, 35 °C, read-out: minimal inhibitory concentrations (MIC)
[10] = tested on: S. aureus NCTC 4163; experiment: disc diffusion method; type: cell-based, Staphylococcus aureus; settings: 5 µg/9 mm disc
[11] = tested on: S. aureus ATCC 25923; experiment: disc diffusion method; type: cell-based, Staphylococcus aureus; settings: 5 µg/9 mm disc
[12] = tested on: S. aureus ATCC 6538; experiment: disc diffusion method; type: cell-based, Staphylococcus aureus; settings: 5 µg/9 mm disc
[13] = tested on: S. aureus ATCC 29213; experiment: disc diffusion method; type: cell-based, Staphylococcus aureus; settings: 5 µg/9 mm disc
[14] = tested on: S. epidermidis ATCC 12228; experiment: disc diffusion method; type: cell-based, Staphylococcus epidermidis; settings: 5 µg/9 mm disc
[15] = tested on: B. subtilis ATCC 6633; experiment: disc diffusion method; type: cell-based, Bacillus subtilis; settings: 5 µg/9 mm disc
[16] = tested on: B. cereus ATCC 11778; experiment: disc diffusion method; type: cell-based, Bacillus cereus; settings: 5 µg/9 mm disc
[17] = tested on: M. luteus ATCC 9341; experiment: disc diffusion method; type: cell-based, Micrococcus luteus; settings: 5 µg/9 mm disc
[18] = tested on: M. luteus ATCC 10240; experiment: disc diffusion method; type: cell-based, Micrococcus luteus; settings: 5 µg/9 mm disc
[19] = biological target: S. aureus topoisomerase IV (Staphylococcus aureus, UniProt P0C1S7+P0C1U9); settings: at 32 µg/mL
[20] = tested on: hospital methicillin-susceptible strains of S. aureus (MSSA); experiment: MIC against hospital strains; settings: Staphylococcus aureus
[21] = tested on: methicillin-resistant strains of S. aureus (MRSA); experiment: MIC against hospital strains; settings: Staphylococcus aureus
[22] = tested on: S. epidermidis (MRSE); experiment: MIC against hospital strains; settings: Staphylococcus epidermidis
[23] = tested on: BVDV; experiment: microbe, parasite or virus in culture; type: cell-based, bovine viral diarrhoea virus; settings: Bovine viral diarrhea virus isolates and strains, MDBK, in Bos taurus, read-out: BVDV EC50
[24] = tested on: YFV; experiment: microbe, parasite or virus in culture; type: cell-based; settings: Yellow fever virus, BHK, read-out: YFV EC50
[25] = tested on: CV-B5; experiment: microbe, parasite or virus in culture; type: cell-based, coxsackievirus B5; settings: Enterovirus B, CVB5, Vero 76, read-out: CV-B5 EC50
[26] = tested on: Sb-1; experiment: microbe, parasite or virus in culture; type: cell-based, poliovirus type-1; settings: Enterovirus C, Vero 76, read-out: Sb-1 EC50
[27] = tested on: Reo-1; experiment: microbe, parasite or virus in culture; type: cell-based, reovirus type-1; settings: Reovirus sp., BHK, read-out: Reo-1 EC50
[28] = tested on: RSV; experiment: microbe, parasite or virus in culture; type: cell-based, human respiratory syncytial virus; settings: human respiratory syncytial virus, Vero 76, read-out: RSV EC50
[29] = tested on: VSV; experiment: microbe, parasite or virus in culture; type: cell-based; settings: Vesicular stomatitis virus, Vero 76, read-out: VSV EC50
[30] = tested on: VV; experiment: microbe, parasite or virus in culture; type: cell-based; settings: Orthopoxvirus vaccinia, Vero 76, read-out: VV EC50
[31] = tested on: HSV-1; experiment: microbe, parasite or virus in culture; type: cell-based, human herpes 1; settings: Human alphaherpesvirus 1, Vero 76, read-out: HSV-1 EC50
[32] = tested on: HIV-1 N119 (Y181C mutant); experiment: microbe, parasite or virus in culture; type: cell-based, Human Immunodeficiency Virus type-1; settings: Human immunodeficiency virus 1, MT4, read-out: EC50 N119
[33] = tested on: HIV-1 A17 (K103N + Y181C mutant); experiment: microbe, parasite or virus in culture; type: cell-based, Human Immunodeficiency Virus type-1; settings: for EC50: Human immunodeficiency virus 1, MT4, 96 h, read-out: EC50 A17
[34] = tested on: HIV-1 EFV^R (K103R + V179D + P225H mutant); experiment: microbe, parasite or virus in culture; type: cell-based, Human Immunodeficiency Virus type-1; settings: Human immunodeficiency virus 1, MT4, 96 h, read-out: EC50 EFV^R
[35] = tested on: HIV-1 AZT^R strain (67N, 70R, 215F, 219Q); experiment: microbe, parasite or virus in culture; type: cell-based, Human Immunodeficiency Virus type-1; settings: for EC50: Human immunodeficiency virus 1, MT4, read-out: EC50 AZT^R
[36] = tested on: HIV-1 MDR strain (74V, 41L, 106A, 215Y); experiment: microbe, parasite or virus in culture; type: cell-based, Human Immunodeficiency Virus type-1; settings: for EC50: Human immunodeficiency virus 1, MT4, read-out: EC50 MDR
[37] = in vitro; settings: human
[38] = in vitro; settings: cattle (Bos taurus)
[39] = in vitro; settings: Syrian hamster (Mesocricetus auratus)
[40] = in vitro; settings: African green monkey (Cercopithecus aethiops)
[41] = tested on: HIV-1; experiment: microbe, parasite or virus in culture
[42] = Human immunodeficiency virus 1, MT4, read-out: EC50 HIV-1

Chain of S. aureus topoisomerase IV (P0C1U9 whole entry): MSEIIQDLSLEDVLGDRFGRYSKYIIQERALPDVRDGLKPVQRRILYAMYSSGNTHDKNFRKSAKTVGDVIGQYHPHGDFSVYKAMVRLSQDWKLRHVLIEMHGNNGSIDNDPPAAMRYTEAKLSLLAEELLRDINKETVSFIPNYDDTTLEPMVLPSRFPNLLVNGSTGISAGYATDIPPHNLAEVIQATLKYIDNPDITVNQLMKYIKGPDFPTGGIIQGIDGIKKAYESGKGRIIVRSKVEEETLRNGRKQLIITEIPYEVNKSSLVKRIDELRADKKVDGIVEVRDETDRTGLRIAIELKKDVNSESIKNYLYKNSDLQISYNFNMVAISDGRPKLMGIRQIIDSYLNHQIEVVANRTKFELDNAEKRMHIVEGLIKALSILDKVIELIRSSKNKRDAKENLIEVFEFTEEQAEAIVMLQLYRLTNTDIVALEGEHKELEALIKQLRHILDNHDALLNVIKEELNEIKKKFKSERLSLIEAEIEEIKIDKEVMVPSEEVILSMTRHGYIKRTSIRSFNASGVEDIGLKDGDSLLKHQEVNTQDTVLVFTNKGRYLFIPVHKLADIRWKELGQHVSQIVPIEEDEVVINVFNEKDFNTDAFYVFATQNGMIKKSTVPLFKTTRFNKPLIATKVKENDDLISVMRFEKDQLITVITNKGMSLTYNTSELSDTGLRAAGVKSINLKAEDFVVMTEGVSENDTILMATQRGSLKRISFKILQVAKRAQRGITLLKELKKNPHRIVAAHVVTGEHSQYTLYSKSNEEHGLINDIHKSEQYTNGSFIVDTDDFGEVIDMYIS
Chain of S. aureus topoisomerase IV (P0C1S7 whole entry): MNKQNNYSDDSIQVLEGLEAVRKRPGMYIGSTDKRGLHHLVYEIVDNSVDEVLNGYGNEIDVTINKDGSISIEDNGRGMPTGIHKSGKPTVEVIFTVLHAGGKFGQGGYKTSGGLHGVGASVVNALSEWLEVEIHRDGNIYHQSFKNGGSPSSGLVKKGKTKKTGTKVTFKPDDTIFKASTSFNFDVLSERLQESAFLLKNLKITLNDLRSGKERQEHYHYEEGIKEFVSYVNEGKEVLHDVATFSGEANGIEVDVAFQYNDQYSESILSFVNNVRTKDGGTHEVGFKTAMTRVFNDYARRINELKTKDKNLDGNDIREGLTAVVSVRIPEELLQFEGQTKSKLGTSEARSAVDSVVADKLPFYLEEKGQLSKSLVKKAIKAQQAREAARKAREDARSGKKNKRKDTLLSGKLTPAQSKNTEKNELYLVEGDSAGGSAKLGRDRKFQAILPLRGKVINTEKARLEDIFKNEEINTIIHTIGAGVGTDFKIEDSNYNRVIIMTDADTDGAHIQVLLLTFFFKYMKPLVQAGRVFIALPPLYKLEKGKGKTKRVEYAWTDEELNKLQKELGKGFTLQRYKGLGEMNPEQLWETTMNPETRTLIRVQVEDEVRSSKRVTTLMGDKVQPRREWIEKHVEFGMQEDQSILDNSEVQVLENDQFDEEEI

O=C(O)c1cn(C2CC2)c2cc(N3CCNCC3)c(F)cc2c1=O [Ciprofloxacin, reference compound]
MIC [1]: 0.25 µg/mL (≈ 0.754 µM) | MIC [2]: 0.5 µg/mL (≈ 1.51 µM) | MIC [3]: 0.25 µg/mL (≈ 0.754 µM) | MIC [4]: 0.5 µg/mL (≈ 1.51 µM) | MIC [5]: 0.25 µg/mL (≈ 0.754 µM) | MIC [6]: < 0.12 µg/mL | MIC [7]: 0.25 µg/mL (≈ 0.754 µM) | MIC [8]: 0.25 µg/mL (≈ 0.754 µM) | MIC [9]: 1 µg/mL (≈ 3.02 µM) | diameter of growth inhibitory zone (GIZ) [10]: 26 mm | diameter of growth inhibitory zone (GIZ) [11]: 26 mm | diameter of growth inhibitory zone (GIZ) [12]: 28 mm | diameter of growth inhibitory zone (GIZ) [13]: 22 mm | diameter of growth inhibitory zone (GIZ) [14]: 30 mm | diameter of growth inhibitory zone (GIZ) [15]: 38 mm | diameter of growth inhibitory zone (GIZ) [16]: 26 mm | diameter of growth inhibitory zone (GIZ) [17]: 26 mm | diameter of growth inhibitory zone (GIZ) [18]: 25 mm | inhibition of decatenation activity of S. aureus topoisomerase IV [19]: almost completely inhibited | MIC ([20]; hospital S. aureus MSSA strain 440/11): 0.4 µg/mL (≈ 1.21 µM) | MIC ([20]; hospital S. aureus MSSA strain 441/11): 0.4 µg/mL (≈ 1.21 µM) | MIC ([20]; hospital S. aureus MSSA strain 442/11): 0.4 µg/mL (≈ 1.21 µM) | MIC ([20]; hospital S. aureus MSSA strain 443/11): 0.4 µg/mL (≈ 1.21 µM) | MIC ([20]; hospital S. aureus MSSA strain 444/11): 0.8 µg/mL (≈ 2.41 µM) | MIC ([20]; hospital S. aureus MSSA strain 445/11): 0.4 µg/mL (≈ 1.21 µM) | MIC ([20]; hospital S. aureus MSSA strain 446/11): 0.4 µg/mL (≈ 1.21 µM) | MIC ([20]; hospital S. aureus MSSA strain 447/11): 0.8 µg/mL (≈ 2.41 µM) | MIC ([20]; hospital S. aureus MSSA strain 448/11): 0.8 µg/mL (≈ 2.41 µM) | MIC ([20]; hospital S. aureus MSSA strain 449/11): 0.4 µg/mL (≈ 1.21 µM) | MIC ([21]; hospital S. aureus MRSA strain 389/10): 25 µg/mL (≈ 75.4 µM) | MIC ([21]; hospital S. aureus MRSA strain 390/10): 100 µg/mL (≈ 302 µM) | MIC ([21]; hospital S. aureus MRSA strain 391/10): 100 µg/mL (≈ 302 µM) | MIC ([21]; hospital S. aureus MRSA strain 392/10): 100 µg/mL (≈ 302 µM) | MIC ([21]; hospital S. aureus MRSA strain 393/10): 50 µg/mL (≈ 151 µM) | MIC ([21]; hospital S. aureus MRSA strain 394/10): 25 µg/mL (≈ 75.4 µM) | MIC ([21]; hospital S. aureus MRSA strain 399/10): 200 µg/mL (≈ 604 µM) | MIC ([21]; hospital S. aureus MRSA strain 450/11): 100 µg/mL (≈ 302 µM) | MIC ([21]; hospital S. aureus MRSA strain 451/11): 100 µg/mL (≈ 302 µM) | MIC ([21]; hospital S. aureus MRSA strain 452/11): 200 µg/mL (≈ 604 µM) | MIC [22]: 6.25 µg/mL (≈ 18.9 µM) | MIC ([22]; hospital S. epidermidis MRSE strain 430/11): 0.8 µg/mL (≈ 2.41 µM) | MIC ([22]; hospital S. epidermidis MRSE strain 432/11): 50 µg/mL (≈ 151 µM) | MIC ([22]; hospital S. epidermidis MRSE strain 433/11): 50 µg/mL (≈ 151 µM) | MIC ([22]; hospital S. epidermidis MRSE strain 434/11): 50 µg/mL (≈ 151 µM) | MIC ([22]; hospital S. epidermidis MRSE strain 435/11): 0.4 µg/mL (≈ 1.21 µM) | MIC ([22]; hospital S. epidermidis MRSE strain 436/11): 0.4 µg/mL (≈ 1.21 µM) | MIC ([22]; hospital S. epidermidis MRSE strain 437/11): 0.8 µg/mL (≈ 2.41 µM) | MIC ([22]; hospital S. epidermidis MRSE strain 438/11): 0.4 µg/mL (≈ 1.21 µM) | MIC ([22]; hospital S. epidermidis MRSE strain 439/11): 50 µg/mL (≈ 151 µM)

S=C(NCCc1c[nH]c2ccccc12)Nc1ccc(Br)cc1 [Compound 8, 1-(2-(1H-Indol-3-yl)ethyl)-3-(4-bromophenyl)thiourea]
EC50 [23]: > 52 µM | EC50 [24]: > 10 µM | EC50 [25]: > 13 µM | EC50 [26]: > 13 µM | EC50 [27]: > 10 µM | EC50 [28]: > 13 µM | EC50 [29]: > 13 µM | EC50 [30]: > 13 µM | EC50 [31]: > 13 µM | EC50 [32]: > 45 µM | activity against A17 strain compared with wild type (in words) [33]: comparable with those of HIV-1 wild-type | EC50 [33]: 12 ± 1.5 µM | EC50 [34]: > 45 µM | activity against AZT^R strain compared with wild type (in words) [35]: comparable with those of HIV-1 wild-type | EC50 [35]: 9 ± 1 µM | activity against MDR strain compared with wild type (in words) [36]: comparable with those of HIV-1 wild-type | EC50 [36]: 9 ± 0.8 µM | melting point: 156 to 158 °C | CC50 [37]: 45 µM | CC50 [38]: 52 µM | CC50 [39]: 10 µM | CC50 [40]: 13 µM | EC50 [41, 42]: 8.7 ± 0.8 µM | EC50 ([41]; Human immunodeficiency virus 1, MT4, read-out: HIV-1 EC50): 8.7 ± 0.4 µM

O=C1Nc2ccc(Cl)cc2[C@@](C#CC2CC2)(C(F)(F)F)O1 [Efavirenz]
EC50 [32]: 0.018 ± 0.002 µM | EC50 [33]: 0.075 ± 0.009 µM | EC50 [34]: 7 ± 0.8 µM | EC50 [35]: 0.001 ± 0.0002 µM | CC50 [37]: 40 µM

Cc1ccnc2c1NC(=O)c1cccnc1N2C1CC1 [Nevirapine]
EC50 [32]: 6.3 ± 0.05 µM | EC50 [33]: 80 µM | EC50 [34]: 100 µM | EC50 [35]: 0.078 ± 0.008 µM | EC50 [36]: 5 ± 0.6 µM | CC50 [37]: > 100 µM | EC50 [41, 42]: 0.08 ± 0.005 µM
